Experimental data taken from PubChem BioAssay AID330 (DTP/NCI, 2004).
Several values for one entry are separate records, joined by “and”; a condition that tells them apart may be missing. Equal entries are not always repeated. Inconclusive results and toxic doses are left out. Square brackets hold non-standard residues; d marks the D form. Peptide text beside a SMILES is read from it. ξ: configuration not given here. ξY = NC(Cc1ccc(O)cc1)C(=O)O

Test system: P388 leukemia ip, CD2F1 mice, survival T/C
Experiment: NCI In Vivo Anticancer Drug Screen. Data for tumor model P388 Leukemia (intraperitoneal) in CD2F1 (CDF1) mice
Conditions: endpoint: median survival time, higher = longer survival
In short: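 Mice carrying the transplanted tumor received test compound or vehicle. Survival was recorded in each group, and the value is the treated-group measurement divided by that of the vehicle-treated control group.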

[1] = dose: 50.0 mg/kg/injection, schedule: Q01DX009 (ip), vehicle: saline with Tween-80
[2] = dose: 100.0 mg/kg/injection, schedule: Q01DX009 (ip), vehicle: saline with Tween-80
[3] = dose: 100.0 mg/kg/injection, schedule: Q04DX003 (ip), vehicle: saline with Tween-80
[4] = dose: 200.0 mg/kg/injection, schedule: Q01DX009 (ip), vehicle: saline with Tween-80
[5] = dose: 200.0 mg/kg/injection, schedule: Q04DX003 (ip), vehicle: saline with Tween-80
[6] = dose: 50.0 mg/kg/injection, schedule: Q01DX009 (ip), vehicle: Klucel (hydroxypropylcellulose) (HPC)
[7] = dose: 50.0 mg/kg/injection, schedule: Q01DX005 (ip), vehicle: Klucel (hydroxypropylcellulose) (HPC)
[8] = dose: 100.0 mg/kg/injection, schedule: Q01DX005 (ip), vehicle: Klucel (hydroxypropylcellulose) (HPC)
[9] = dose: 200.0 mg/kg/injection, schedule: Q01DX005 (ip), vehicle: Klucel (hydroxypropylcellulose) (HPC)

COC1=C(N)C(=O)c2nc(-c3nc(C=O)c(C)c(-c4ccc(OC)c(OC)c4O)c3N)ccc2C1=O
T/C (dose: 0.18 mg/kg/injection, schedule: Q01DX009 (ip), vehicle: DMSO): 116 % of control
T/C (dose: 0.3 mg/kg/injection, schedule: Q01DX009 (ip), vehicle: DMSO): 115 % of control
T/C (dose: 0.3 mg/kg/injection, schedule: Q01DX009 (ip), vehicle: other): 115 % of control
T/C (dose: 0.33 mg/kg/injection, schedule: Q01DX009 (ip), vehicle: DMSO): 104 % of control
T/C (dose: 0.55 mg/kg/injection, schedule: Q01DX009 (ip), vehicle: DMSO): 124 % of control
T/C (dose: 0.55 mg/kg/injection, schedule: Q01DX009 (ip), vehicle: other): 124 % of control
T/C (dose: 0.62 mg/kg/injection, schedule: Q01DX009 (ip), vehicle: other): 120 % of control
T/C (dose: 0.63 mg/kg/injection, schedule: Q01DX009 (ip), vehicle: DMSO): 110 % of control
T/C (dose: 0.93 mg/kg/injection, schedule: Q01DX009 (ip), vehicle: DMSO): 121 % of control
T/C (dose: 1.05 mg/kg/injection, schedule: Q01DX009 (ip), vehicle: DMSO): 124 % of control
T/C (dose: 1.05 mg/kg/injection, schedule: Q01DX009 (ip), vehicle: other): 124 % of control
T/C (dose: 1.24 mg/kg/injection, schedule: Q01DX009 (ip), vehicle: other): 110 % of control
T/C (dose: 1.53 mg/kg/injection, schedule: Q01DX009 (ip), vehicle: DMSO): 118 % of control
T/C (dose: 1.55 mg/kg/injection, schedule: Q01DX009 (ip), vehicle: DMSO): 124 % of control
T/C (dose: 1.55 mg/kg/injection, schedule: Q01DX009 (ip), vehicle: other): 99 % of control and 100 % of control and 124 % of control
T/C (dose: 2.05 mg/kg/injection, schedule: Q01DX009 (ip), vehicle: DMSO): 110 % of control
T/C (dose: 2.05 mg/kg/injection, schedule: Q01DX009 (ip), vehicle: other): 110 % of control
T/C (dose: 3.03 mg/kg/injection, schedule: Q01DX009 (ip), vehicle: DMSO): 84 % of control
T/C (dose: 3.1 mg/kg/injection, schedule: Q01DX009 (ip), vehicle: other): 121 % of control
T/C (dose: 4.96 mg/kg/injection, schedule: Q01DX009 (ip), vehicle: other): 92 % of control and 93 % of control
T/C (dose: 6.03 mg/kg/injection, schedule: Q01DX009 (ip), vehicle: DMSO): 94 % of control
T/C (dose: 6.05 mg/kg/injection, schedule: Q01DX009 (ip), vehicle: DMSO): 124 % of control
T/C (dose: 6.05 mg/kg/injection, schedule: Q01DX009 (ip), vehicle: other): 124 % of control
T/C (dose: 6.2 mg/kg/injection, schedule: Q01DX009 (ip), vehicle: other): 110 % of control
T/C (dose: 12.4 mg/kg/injection, schedule: Q01DX009 (ip), vehicle: other): 56 % of control

Cn1nnn(C)c1=NC#N
T/C (dose: 100.0 mg/kg/injection, schedule: Q01DX001 (ip), vehicle: saline): 100 % of control
T/C (dose: 200.0 mg/kg/injection, schedule: Q01DX001 (ip), vehicle: saline): 107 % of control
T/C (dose: 400.0 mg/kg/injection, schedule: Q01DX001 (ip), vehicle: saline): 100 % of control

Oc1ccc2ccccc2c1/C=N/c1nc(-c2ccc(Cl)cc2)cs1
T/C (dose: 100.0 mg/kg/injection, schedule: Q01DX001 (ip), vehicle: saline with Tween-80): 89 % of control
T/C (dose: 200.0 mg/kg/injection, schedule: Q01DX001 (ip), vehicle: saline with Tween-80): 90 % of control
T/C (dose: 400.0 mg/kg/injection, schedule: Q01DX001 (ip), vehicle: saline with Tween-80): 92 % of control

Cc1ccc(N=C(N)NC#N)cc1
T/C [1]: 100 % of control
T/C [2]: 90 % of control
T/C [3]: 91 % of control
T/C [4]: 90 % of control
T/C [5]: 87 % of control

O=C(NCCCCCCNC(=O)C1CCCN1C(=O)OCc1ccccc1)C1CCCN1C(=O)OCc1ccccc1 (configuration not stated)
T/C (dose: 60.0 mg/kg/injection, schedule: Q01DX005 (ip), vehicle: Klucel (hydroxypropylcellulose) (HPC)): 100 % of control
T/C (dose: 120.0 mg/kg/injection, schedule: Q01DX005 (ip), vehicle: Klucel (hydroxypropylcellulose) (HPC)): 98 % of control
T/C (dose: 240.0 mg/kg/injection, schedule: Q01DX005 (ip), vehicle: Klucel (hydroxypropylcellulose) (HPC)): 100 % of control

N#Cc1nccnc1C#N
T/C (dose: 12.5 mg/kg/injection, schedule: Q01DX009 (ip), vehicle: saline with Tween-80): 86 % of control
T/C (dose: 25.0 mg/kg/injection, schedule: Q01DX009 (ip), vehicle: saline with Tween-80): 105 % of control
T/C [6]: 102 % of control
T/C [1]: 101 % of control

Oc1ccc(Nc2ccnc3cc(Cl)ccc23)cc1CN(CCCl)CCCl
T/C (dose: 0.16 mg/kg/injection, schedule: Q01DX009 (ip), vehicle: saline): 119 % of control
T/C (dose: 0.31 mg/kg/injection, schedule: Q01DX009 (ip), vehicle: saline): 123 % of control
T/C (dose: 0.63 mg/kg/injection, schedule: Q01DX009 (ip), vehicle: saline): 150 % of control
T/C (dose: 1.25 mg/kg/injection, schedule: Q01DX009 (ip), vehicle: saline): 101 % of control
T/C (dose: 2.5 mg/kg/injection, schedule: Q01DX009 (ip), vehicle: saline): 153 % of control and 156 % of control

CCCCCCC(O)C/C=C\CCCCCCCC(=O)O (configuration not stated)
T/C [6]: 107 % of control
T/C (dose: 100.0 mg/kg/injection, schedule: Q01DX009 (ip), vehicle: Klucel (hydroxypropylcellulose) (HPC)): 107 % of control
T/C (dose: 200.0 mg/kg/injection, schedule: Q01DX009 (ip), vehicle: Klucel (hydroxypropylcellulose) (HPC)): 102 % of control
T/C (dose: 400.0 mg/kg/injection, schedule: Q01DX009 (ip), vehicle: Klucel (hydroxypropylcellulose) (HPC)): 95 % of control

CCN(CC)CC(C)(C)C(=O)/C=C/c1ccc(Cl)cc1
T/C (dose: 60.0 mg/kg/injection, schedule: Q01DX005 (ip), vehicle: saline): 110 % of control
T/C (dose: 120.0 mg/kg/injection, schedule: Q01DX005 (ip), vehicle: saline): 116 % of control

O=[N+]([O-])O.O=[N+]([O-])O.[Cu].c1cnc2c(c1)ccc1cccnc12
T/C (dose: 1.56 mg/kg/injection, schedule: Q04DX002 (ip), vehicle: saline): 101 % of control
T/C (dose: 6.25 mg/kg/injection, schedule: Q04DX002 (ip), vehicle: saline): 99 % of control and 106 % of control

CN(C)C(=S)SSC(C)(C)C
T/C [7]: 100 % of control
T/C [8]: 99 % of control
T/C [9]: 100 % of control

O=C1Nc2ccccc2S/C1=C\c1cccc(C(F)(F)F)c1
T/C [1]: 94 % of control
T/C [2]: 100 % of control
T/C [4]: 105 % of control

O=c1[nH][nH]c(=O)c2c1CCC2
T/C (dose: 6.25 mg/kg/injection, schedule: Q01DX009 (ip), vehicle: distilled water + Tween-80): 100 % of control
T/C (dose: 12.5 mg/kg/injection, schedule: Q01DX009 (ip), vehicle: distilled water + Tween-80): 100 % of control
T/C (dose: 25.0 mg/kg/injection, schedule: Q01DX009 (ip), vehicle: distilled water + Tween-80): 100 % of control
T/C (dose: 50.0 mg/kg/injection, schedule: Q01DX009 (ip), vehicle: distilled water + Tween-80): 107 % of control
T/C (dose: 100.0 mg/kg/injection, schedule: Q01DX009 (ip), vehicle: distilled water + Tween-80): 103 % of control
T/C (dose: 200.0 mg/kg/injection, schedule: Q01DX009 (ip), vehicle: distilled water + Tween-80): 100 % of control

CC1CCC2(CC1)CC(=O)N(N)C2=O (configuration not stated)
T/C (dose: 60.0 mg/kg/injection, schedule: Q01DX005 (ip), vehicle: saline with Tween-80): 104 % of control
T/C (dose: 120.0 mg/kg/injection, schedule: Q01DX005 (ip), vehicle: saline with Tween-80): 105 % of control
T/C (dose: 240.0 mg/kg/injection, schedule: Q01DX005 (ip), vehicle: saline with Tween-80): 108 % of control

c1ccc2c(c1)ccc1ncc3ncccc3c12
T/C (dose: 100.0 mg/kg/injection, schedule: Q04DX002 (ip), vehicle: saline with Tween-80): 98 % of control
T/C (dose: 200.0 mg/kg/injection, schedule: Q04DX002 (ip), vehicle: saline with Tween-80): 114 % of control

C[C@H]1C[C@@H]2[C@H]([C@@H](O)C[C@@]3(C)[C@H]2CC[C@]3(O)C(=O)CF)[C@@]2(C)C=CC(=O)C=C12
T/C (dose: 10.0 mg/kg/injection, schedule: Q01DX009 (ip), vehicle: saline with Tween-80): 104 % of control
T/C [3]: 100 % of control
T/C [4]: 95 % of control
T/C [5]: 100 % of control
T/C (dose: 400.0 mg/kg/injection, schedule: Q01DX009 (ip), vehicle: saline with Tween-80): 86 % of control
T/C (dose: 400.0 mg/kg/injection, schedule: Q04DX003 (ip), vehicle: saline with Tween-80): 100 % of control

NCC(=O)NC(Cc1ccc(O)cc1)C(=O)NCC(=O)O (configuration not stated) (H-Gly-[ξY]-Gly-OH)
T/C [7]: 99 % of control
T/C [8]: 98 % of control
T/C [9]: 98 % of control
